Test systems include SR; SK-MEL-28; HT-29; U-251; 786-0; MOLT-4; RXF 393; SF-295; SNB-19; SNB-75; RPMI-8226; NCI-H460; LOX IMVI; K562; HCC 2998.
Common to all, as to test: growth of human tumour cells (NCI), 48 h

SMILES strings stand for the structures.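 Assay format: 96-well plates, 48-hour exposure. GI50: concentration for 50% inhibition of growth.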 Activity calls are given as the source filed them. Cut-off read from the data, not from the text of the source: active = GI50 up to about 1.1 µM and inactive = higher.

Regarding `CC1(O)C=CC2CCC1C2O` (centres undefined), the GI50 in the experiment with SR is 23.7 µM (inactive); in the experiment with SK-MEL-28, > 100 µM (inactive); with HT-29 it was > 100 µM (inactive); in the experiment with U-251, > 100 µM (inactive); with 786-0, 25.4 µM (inactive); with MOLT-4, > 100 µM (inactive). Also, the GI50 in the experiment with RXF 393 was 87.5 µM (inactive); in the experiment on SF-295, > 100 µM (inactive); with SNB-19 it was > 100 µM (inactive); in the experiment on SNB-75, > 100 µM (inactive); in the experiment with RPMI-8226, 28.2 µM (inactive); with NCI-H460, 46.5 µM (inactive). Besides, the GI50 with LOX IMVI was 21.5 µM (inactive); with K562, > 100 µM (inactive).

Consider `CC(=O)N/C(=C\c1ccccc1/C=C(\NC(C)=O)c1nc2cc(C)c(C)cc2[nH]1)c1nc2cc(C)c(C)cc2[nH]1`, for which the GI50 was 0.689 µM (active) in the experiment with SR; 7.43 µM (inactive) with SK-MEL-28; 34.8 µM (inactive) in the experiment on HT-29; 6.59 µM (inactive) with U-251; 18.7 µM (inactive) in the experiment with 786-0; 20.3 µM (inactive) with MOLT-4. The GI50 in the experiment with SNB-19 is 6.81 µM (inactive); in the experiment with SNB-75, 13.7 µM (inactive); in the experiment with RPMI-8226, 2.04 µM (inactive); with NCI-H460 it was 26.8 µM (inactive); in the experiment with K562, 28.6 µM (inactive).

For `CCC(=O)O[C@@H]1C2C(OC(C)=O)C34COC(C)([C@@H]3C3C(C[C@]3(C)OC(C)=O)[C@@H](OC(=O)c3ccccc3)C4=O)[C@H](OC(C)=O)[C@@]2(OC(C)=O)C[C@@H]1C` (some centres undefined), the GI50 with SR is 54.1 µM (inactive); in the experiment on SK-MEL-28 it was > 100 µM (inactive); in the experiment on HT-29, > 100 µM (inactive); in the experiment with U-251 it was 10.4 µM (inactive); in the experiment with 786-0, 11.7 µM (inactive); with MOLT-4, > 100 µM (inactive). Besides, the GI50 in the experiment with SF-295 is 12.4 µM (inactive); in the experiment with HCC 2998, 64.7 µM (inactive); in the experiment on SNB-19, 14 µM (inactive); in the experiment on SNB-75, 3.01 µM (inactive); in the experiment with RPMI-8226, > 100 µM (inactive); with NCI-H460, > 100 µM (inactive). In addition, the GI50 was 32 µM (inactive) in the experiment on LOX IMVI and > 10 µM (inactive) in the experiment on K562.

Take `CC(C)N(C(=O)C12C3C4C1C1C4(C#N)C3C12C#N)C(C)C` (centres undefined): the GI50 in the experiment on SK-MEL-28, in the experiment with HT-29, in the experiment on U-251, in the experiment with 786-0, in the experiment on MOLT-4 and with RXF 393 was > 100 µM (inactive) throughout. The GI50 in the experiment with SF-295, with HCC 2998, in the experiment on SNB-19, in the experiment on RPMI-8226, with NCI-H460 and in the experiment on K562 was > 100 µM (inactive) each time.

Regarding `COc1ccc(C(=O)C(C(=O)CCC(=O)Nc2cccc(C(F)(F)F)c2)c2ccccc2)cc1` (centres undefined), the GI50 was 62.7 µM (inactive) with SR; > 100 µM (inactive) in the experiment with SK-MEL-28; 65.6 µM (inactive) with HT-29; > 100 µM (inactive) with U-251; > 100 µM (inactive) with 786-0; 43.1 µM (inactive) with MOLT-4. In addition, the GI50 in the experiment with SF-295 was 93.5 µM (inactive); in the experiment with HCC 2998, > 100 µM (inactive); with SNB-19 it was > 100 µM (inactive); in the experiment on SNB-75, > 100 µM (inactive); with RPMI-8226, 55.2 µM (inactive); with NCI-H460, > 100 µM (inactive). In addition, the GI50 in the experiment with K562 was 54 µM (inactive).

In the case of `C[C@@H]1CC2(C[C@@H](C)C3[C@@H](CC4(C)CCCC5C6=CC(O)(CC[C@]34C)OC6=CC(=O)OC5(C)C)O2)OC1=O` (some centres undefined), the GI50 in the experiment on SR, in the experiment on SK-MEL-28, with U-251, with 786-0, with MOLT-4 and in the experiment with RXF 393 was > 100 µM (inactive) each time. Moreover, the GI50 is > 100 µM (inactive) in the experiment with HCC 2998; > 100 µM (inactive) with SNB-19; 96.2 µM (inactive) in the experiment with SNB-75; > 100 µM (inactive) with RPMI-8226; > 100 µM (inactive) in the experiment on LOX IMVI; 84.3 µM (inactive) in the experiment with K562.

Turning to `O=C(O)CNS(=O)(=O)c1ccc(NC(=O)c2ccc([N+](=O)[O-])cc2)cc1`, the GI50 in the experiment with SK-MEL-28, in the experiment on HT-29, with U-251, in the experiment on 786-0, with MOLT-4 and in the experiment with RXF 393 was > 100 µM (inactive) throughout. Further, the GI50 with SF-295, in the experiment on HCC 2998, in the experiment with SNB-19, in the experiment with SNB-75, in the experiment with RPMI-8226 and with NCI-H460 was > 100 µM (inactive) in each case. For the same compound, the GI50 in the experiment with LOX IMVI and in the experiment with K562 was > 100 µM (inactive) throughout.

For `OCC1O[C@H](O[C@@H]2CCCN3CC(O)C(O)[C@@H]23)C(O)C(O)C1O` (some centres undefined), the GI50 in the experiment with SR, in the experiment on SK-MEL-28, in the experiment on HT-29, with U-251, in the experiment on MOLT-4 and in the experiment on SF-295 was > 100 µM (inactive) each time. Further, the GI50 in the experiment on HCC 2998, in the experiment with SNB-75 and in the experiment on K562 was > 100 µM (inactive) in each case.

Take `COC[C@@H]1Cc2cc(OC)c3c(c2[C@H](c2ccc(OC)c(OC)c2)[C@H]1COC)OCO3` [HYPOPHYLLANTHIN]: the GI50 was > 100 µM (inactive) with SR; > 100 µM (inactive) in the experiment with SK-MEL-28; > 100 µM (inactive) in the experiment on HT-29; > 100 µM (inactive) with U-251; > 100 µM (inactive) in the experiment with MOLT-4; 42.6 µM (inactive) in the experiment with RXF 393. The GI50 is 57.5 µM (inactive) with SF-295; > 100 µM (inactive) in the experiment with HCC 2998; > 100 µM (inactive) in the experiment on SNB-19; 28.1 µM (inactive) in the experiment with SNB-75; > 100 µM (inactive) in the experiment on NCI-H460; > 100 µM (inactive) in the experiment on LOX IMVI. The GI50 in the experiment on K562 is > 10 µM (inactive).

With `c1ccc(/N=c2\snc3scc(-c4ccccc4)n23)cc1`, the GI50 was 41 µM (inactive) with SK-MEL-28; 50.5 µM (inactive) in the experiment on HT-29; 26.8 µM (inactive) in the experiment with U-251; 50.5 µM (inactive) in the experiment with 786-0; 29.3 µM (inactive) in the experiment on MOLT-4; 46.2 µM (inactive) with RXF 393. Further, the GI50 was 37.5 µM (inactive) with SF-295; 44.1 µM (inactive) in the experiment with HCC 2998; 39.2 µM (inactive) with SNB-19; > 100 µM (inactive) in the experiment on SNB-75; 28.7 µM (inactive) in the experiment on RPMI-8226; 34.4 µM (inactive) in the experiment on LOX IMVI. The GI50 with K562 was 52.6 µM (inactive).

Consider `COc1cc(C2c3cc4c(cc3[C@@H](Nc3ccc(C(=O)O)cc3)C3COC(=O)[C@H]23)OCO4)cc(OC)c1O` (some centres undefined), for which the GI50 with SK-MEL-28 is 27.5 µM (inactive); in the experiment with HT-29, 22 µM (inactive); in the experiment with MOLT-4, 0.721 µM (active); with RXF 393 it was 9.35 µM (inactive); in the experiment on SF-295, 14.1 µM (inactive); in the experiment with HCC 2998, 28.4 µM (inactive). Besides, the GI50 was 6.14 µM (inactive) in the experiment on SNB-19, 13.2 µM (inactive) in the experiment on SNB-75, 2.39 µM (inactive) with NCI-H460 and 4.41 µM (inactive) in the experiment with LOX IMVI.

With `COc1ccc(OC)c2c1CC(C(=O)O)(C(=O)O)CC2=O`, the GI50 with SK-MEL-28, with U-251, with 786-0, in the experiment with MOLT-4, in the experiment with RXF 393 and with HCC 2998 was > 100 µM (inactive) each time. For the same compound, the GI50 with SNB-19, in the experiment on SNB-75, in the experiment on LOX IMVI and in the experiment on K562 was > 100 µM (inactive) throughout.

With `O=NN(CCCl)C(=O)N[C@H]1CC[C@@H](CC(=O)O)CC1`, the GI50 in the experiment on SK-MEL-28 was > 100 µM (inactive); with HT-29, > 100 µM (inactive); in the experiment on U-251 it was 74 µM (inactive); in the experiment on MOLT-4, 44 µM (inactive); in the experiment on RXF 393 it was > 100 µM (inactive); in the experiment on SF-295 it was 67.5 µM (inactive). Further, the GI50 was > 100 µM (inactive) in the experiment on HCC 2998; 99.3 µM (inactive) in the experiment on SNB-19; > 81.1 µM (inactive) with SNB-75; 35.2 µM (inactive) in the experiment with RPMI-8226; 55.2 µM (inactive) with NCI-H460; > 54.2 µM (inactive) in the experiment on LOX IMVI. Also, in the experiment on K562, the GI50 was > 100 µM (inactive).

Take `C=CCC12CC(=O)CCC1CC(=O)C2` (centres undefined): the GI50 in the experiment with SR, in the experiment with SK-MEL-28, in the experiment with U-251, with 786-0, in the experiment on MOLT-4 and in the experiment with RXF 393 was > 100 µM (inactive) in each case. In addition, the GI50 with HCC 2998, in the experiment with SNB-19, in the experiment on SNB-75, with RPMI-8226, with NCI-H460 and in the experiment with K562 was > 100 µM (inactive) each time.

Turning to `CCOC(=O)C1=C(C)N(NC(=O)OC)C2(N)N(NC(=O)OC)C(C)=C(C(=O)OCC)C12C#N` (centres undefined), the GI50 in the experiment with SR, in the experiment with SK-MEL-28, in the experiment with HT-29, in the experiment with U-251, in the experiment with 786-0 and with MOLT-4 was > 100 µM (inactive) each time. Also, the GI50 with SF-295, in the experiment on HCC 2998, in the experiment on SNB-19, in the experiment with SNB-75, in the experiment with RPMI-8226 and in the experiment on NCI-H460 was > 100 µM (inactive) in each case. For the same compound, the GI50 with LOX IMVI and in the experiment with K562 was > 100 µM (inactive) each time.

Source of the values: ChEMBL document CHEMBL1201862, “PubChem BioAssay data set” (2004).
